Data from US11168086B2, “Methods of synthesizing pyrazine compounds” (Hoffmann-La Roche Inc., priority 2015, dated 2021).

These compounds were tested on HBV (assay: HBV inhibition assay: anti-HBV activity in vitro in HepG2.2.15 cells (extracellular HBV DNA by qPCR)). Settings: Hepatitis B virus, 120 h, five days after compound treatment, extracellular HBV DNA in culture supernatant by qPCR, concentration at which HBV replication is inhibited by 50%.
Assay type: cell-based
Description: Example 441: HBV Inhibition Assays
Cell Line and Culture Conditions:
HepG2.2.15 is a stably-transfected cell line containing the HBV genome. It is derived from the hepatoblastoma cell line Hep G2 (American Type Culture Collection, ATCC® HB-8065™) by the published procedures described in reference: MA Selles et al. Proc. Natl. Acad. Sci. USA 1987, 84, 1005-1009. The cell line was maintained in Dulbecco's modified Eagle's medium (DMEM)-F12 medium supplemented with 10% fetal bovine serum, 100 U/mL penicillin, 100 μg/mL streptomycin, and 0.5 mg/mL of G418.
Anti-HBV Activity In Vitro:
HepG2.2.15 cells were seeded into 96-well plates (3×10^4 cells in 100 μL media per well) and incubated overnight at 37° C. The test compounds were serially half-log diluted in DMSO, then diluted 100 times in culture media. 100 μL diluted compounds were added into the plates to reach 0.5% final concentration of DMSO in every well. Five days after compound treatment, culture supernatant was collected for further analysis.
For quantitative PCR detection of extracellular HBV DNA, culture supernatant was processed by Proteinase K digestion. After heat inactivation of the enzyme, the samples were subjected to HBV DNA quantification by qPCR. The effective compound concentration at which
HBV replication is inhibited by 50% (EC50) was determined.
In the case of `CO[C@@H]1CC(=O)N(c2cnn3c2CN(C(=O)Nc2cc(F)c(F)c(F)c2)[C@@H](C)C3)C1` [Example 379, (6S)-3-[(4R)-4-methoxy-2-oxo-pyrrolidin-1-yl]-6-methyl-N-(3,4,5-trifluorophenyl)-6,7-dihydro-4H-pyrazolo[1,5-a]pyrazine-5-carboxamide], the EC50 is reported as 38 nM. For `C[C@H]1Cn2ncc(N3CC(c4ncccn4)CC3=O)c2CN1C(=O)Nc1cc(F)c(F)c(F)c1` (stereo partly drawn) [Example 437, (6S)-6-methyl-3-(2-oxo-4-pyrimidin-2-yl-pyrrolidin-1-yl)-N-(3,4,5-trifluorophenyl)-6,7-dihydro-4H-pyrazolo[1,5-a]pyrazine-5-carboxamide], the EC50 was 6 nM. For `C[C@H]1Cn2ncc(N3CC(Nc4ncncc4F)CC3=O)c2CN1C(=O)Nc1cc(F)c(F)c(F)c1` (stereo partly drawn) [Example 270, (6S)-3-[4-[(5-fluoropyrimidin-4-yl)amino]-2-oxo-pyrrolidin-1-yl]-6-methyl-N-(3,4,5-trifluorophenyl)-6,7-dihydro-4H-pyrazolo[1,5-a]pyrazine-5-carboxamide], the EC50 was 17 nM. For `C[C@H]1Cn2ncc(N3CC(C(=O)N4CCCC4)CC3=O)c2CN1C(=O)Nc1cc(F)c(F)c(F)c1` (stereo partly drawn) [Example 391, (6S)-6-methyl-3-[2-oxo-4-(pyrrolidine-1-carbonyl)pyrrolidin-1-yl]-N-(3,4,5-trifluorophenyl)-6,7-dihydro-4H-pyrazolo[1,5-a]pyrazine-5-carboxamide], the EC50 was 74 nM. `C[C@H]1Cn2ncc(N3CC4(CCOC4)CC3=O)c2CN1C(=O)Nc1ccc(F)c(Cl)c1` (stereo partly drawn) [Example 303, (6S)—N-(3-chloro-4-fluoro-phenyl)-6-methyl-3-(8-oxo-2-oxa-7-azaspiro[4.4]nonan-7-yl)-6,7-dihydro-4H-pyrazolo[1,5-a]pyrazine-5-carboxamide] showed an EC50 of 81 nM. `C[C@H]1Cn2ncc(N3CC(c4ccccc4)CC3=O)c2CN1C(=O)Nc1cc(F)c(F)c(F)c1` (stereo partly drawn) [Example 309, (6S)-6-methyl-3-(2-oxo-4-phenyl-pyrrolidin-1-yl)-N-(3,4,5-trifluorophenyl)-6,7-dihydro-4H-pyrazolo[1,5-a]pyrazine-5-carboxamide] was tested, and the EC50 was 5 nM. Compound `C[C@H]1Cn2ncc(N3CC(c4cocn4)OC3=O)c2CN1C(=O)Nc1cc(F)c(F)c(F)c1` (stereo partly drawn) [Example 348, (6S)-6-methyl-3-(5-oxazol-4-yl-2-oxo-oxazolidin-3-yl)-N-(3,4,5-trifluorophenyl)-6,7-dihydro-4H-pyrazolo[1,5-a]pyrazine-5-carboxamide] has an EC50 of 94 nM. With `C[C@H]1Cn2ncc(N3CC(C#N)CC3=O)c2CN1C(=O)Nc1cc(F)c(F)c(F)c1` (stereo partly drawn) [Example 240, (6S)-3-(4-cyano-2-oxo-pyrrolidin-1-yl)-6-methyl-N-(3,4,5-trifluorophenyl)-6,7-dihydro-4H-pyrazolo[1,5-a]pyrazine-5-carboxamide] the EC50 was 16 nM. With `C[C@H]1Cn2ncc(N3CC(Nc4ncc(F)cn4)CC3=O)c2CN1C(=O)Nc1cc(F)c(F)c(F)c1` (stereo partly drawn) [Example 414, (6S)-3-[4-[(5-fluoropyrimidin-2-yl)amino]-2-oxo-pyrrolidin-1-yl]-6-methyl-N-(3,4,5-trifluorophenyl)-6,7-dihydro-4H-pyrazolo[1,5-a]pyrazine-5-carboxamide] the EC50 was 17 nM. Work on `CC1Cn2ncc(-c3ccc(F)cc3F)c2CN1C(=O)Nc1cc(F)c(F)c(F)c1` (stereo not shown) [Example 178, 3-(2,4-difluorophenyl)-6-methyl-N-(3,4,5-trifluorophenyl)-6,7-dihydro-4H-pyrazolo[1,5-a]pyrazine-5-carboxamide] yielded an EC50 of 13 nM. With `CC1Cn2ncc(N3CC(C)(C)CC3=O)c2CN1C(=O)Nc1ccc(F)c(Cl)c1` (stereo not shown) [Example 212, N-(3-chloro-4-fluoro-phenyl)-3-(4,4-dimethyl-2-oxo-pyrrolidin-1-yl)-6-methyl-6,7-dihydro-4H-pyrazolo[1,5-a]pyrazine-5-carboxamide] the EC50 was 33 nM. For `C[C@H]1Cn2ncc(-c3ccc(F)cc3)c2CN1C(=O)Nc1ccc(F)c(Cl)c1` [Example 102, (6S)—N-(3-chloro-4-fluoro-phenyl)-3-(4-fluorophenyl)-6-methyl-6,7-dihydro-4H-pyrazolo[1,5-a]pyrazine-5-carboxamide], the EC50 was 14 nM. `CCC1CC(=O)N(c2cnn3c2CN(C(=O)Nc2ccc(F)c(Cl)c2)[C@@H](C)C3)C1` (stereo partly drawn) [Example 302, (6S)—N-(3-chloro-4-fluoro-phenyl)-3-(4-ethyl-2-oxo-pyrrolidin-1-yl)-6-methyl-6,7-dihydro-4H-pyrazolo[1,5-a]pyrazine-5-carboxamide] gave an EC50 of 20 nM. `C[C@H]1Cn2ncc(N3CC(C)(C)OCC3=O)c2CN1C(=O)Nc1ccc(F)c(Cl)c1` [Example 371, (6S)—N-(3-chloro-4-fluoro-phenyl)-3-(2,2-dimethyl-5-oxo-morpholin-4-yl)-6-methyl-6,7-dihydro-4H-pyrazolo[1,5-a]pyrazine-5-carboxamide] gave an EC50 of 20 nM. Compound `CC1Cn2ncc(-c3ccc(F)cc3)c2CN1C(=O)Nc1ccc(F)c(C#N)c1` (stereo not shown) [Example 86, N-(3-cyano-4-fluoro-phenyl)-3-(4-fluorophenyl)-6-methyl-6,7-dihydro-4H-pyrazolo[1,5-a]pyrazine-5-carboxamide] has an EC50 of 66 nM. `Cc1cnn(-c2cnn3c2CN(C(=O)Nc2ccc(F)c(Cl)c2)CC3)c1` [Example 171, N-(3-chloro-4-fluoro-phenyl)-3-(4-methylpyrazol-1-yl)-6,7-dihydro-4H-pyrazolo[1,5-a]pyrazine-5-carboxamide] was tested, and the EC50 was 45 nM. With `C[C@H]1Cn2ncc(N3CN(C(=O)c4ccccc4)CC3=O)c2CN1C(=O)Nc1cc(F)c(F)c(F)c1` [Example 275, (6S)-3-(3-benzoyl-5-oxo-imidazolidin-1-yl)-6-methyl-N-(3,4,5-trifluorophenyl)-6,7-dihydro-4H-pyrazolo[1,5-a]pyrazine-5-carboxamide] the EC50 was 64 nM. `O=C(Nc1ccc(F)c(Cl)c1)N1CCn2cnc(-c3ccc(F)cc3)c2C1` [Example 127, N-(3-chloro-4-fluoro-phenyl)-1-(4-fluorophenyl)-6,8-dihydro-5H-imidazo[1,5-a]pyrazine-7-carboxamide] gave an EC50 of 86 nM. `C#Cc1cc(NC(=O)N2CCn3ncc(-c4ccc(F)cc4F)c3C2)ccc1F` [Example 139, 3-(2,4-difluorophenyl)-N-(3-ethynyl-4-fluoro-phenyl)-6,7-dihydro-4H-pyrazolo[1,5-a]pyrazine-5-carboxamide] gave an EC50 of 46 nM. `C[C@H]1Cn2ncc(-n3cc(CO)cn3)c2CN1C(=O)Nc1cc(F)c(F)c(F)c1` [Example 342, (6S)-3-[4-(hydroxymethyl)pyrazol-1-yl]-6-methyl-N-(3,4,5-trifluorophenyl)-6,7-dihydro-4H-pyrazolo[1,5-a]pyrazine-5-carboxamide] showed an EC50 of 41 nM. Compound `CC1Cn2ncc(-c3ccc(F)cn3)c2CN1C(=O)Nc1cc(F)c(F)c(F)c1` (stereo not shown) [Example 99, 3-(5-fluoro-2-pyridyl)-6-methyl-N-(3,4,5-trifluorophenyl)-6,7-dihydro-4H-pyrazolo[1,5-a]pyrazine-5-carboxamide] has an EC50 of 24 nM. `C[C@H]1Cn2ncc(N3CC(N(C)C(=O)c4ncco4)CC3=O)c2CN1C(=O)Nc1cc(F)c(F)c(F)c1` (stereo partly drawn) [Example 318, N-methyl-N-[1-[(6S)-6-methyl-5-[(3,4,5-trifluorophenyl)carbamoyl]-6,7-dihydro-4H-pyrazolo[1,5-a]pyrazin-3-yl]-5-oxo-pyrrolidin-3-yl]oxazole-2-carboxamide] gave an EC50 of 45 nM.
